Reference: patent US12226455B2, “Medical composition for treating cardiac wasting and cachexia” (RELAXERA Pharmazeutische GmbH & Co. KG, priority 2019, dated 2025)
Marks after values point to notes of the source that are not given here.

Legend:
[1] = test system: patients with advanced cancer in the hospice setting; experiment: Level of dyspnea relative to baseline on a seven-level Likert scale (clinical study); format: in vivo, human; conditions: n=20
Procedure: (§1) 30 patients with advanced cancer in the hospice setting are included randomized and double-blind in a clinical study to a 10-day continuous sc. or iv. infusion of either synthetic human relaxin-2 (25 micrograms/kg body weight/day) (n=20) or placebo (n=10). The following exploratory clinical end-points are assessed at baseline and during treatment (day 3 and day 10): • 1. Patients are asked to report their current level of both dyspnea and general wellbeing relative to baseline using seven-level Likert scales. • 2. In the context of this study, ability of self-care is defined as ability to perform the measures of personal daily hygiene (washing, tooth-brushing) without help. • 3. Congestion is assessed as percentage of patients showing ankle edema or rales upon auscultation. • 4. Plasma levels of NT-proBNP (N-terminal fragment of pro-brain natriuretic peptide), a biomarker of cardiac decompensation, are determined. • 5. The four-meter gait speed (4MGS) is measured.

[2] = test system: patients with advanced cancer in the hospice setting; experiment: Ability of self-care (personal daily hygiene without help), yes-or-no level (clinical study); format: in vivo, human; conditions: n=20
Procedure: as §1

[3] = test system: patients with advanced cancer in the hospice setting; experiment: Level of general wellbeing relative to baseline on a seven-level Likert scale (clinical study); format: in vivo, human; conditions: 25 micrograms/kg body weight/day, n=20
Procedure: as §1

[4] = test system: patients with advanced cancer in the hospice setting; experiment: Congestion: ankle edema or rales upon auscultation, four-level scale (clinical study); format: in vivo, human; conditions: n=20
Procedure: as §1

NT-proBNP = experiment: Plasma levels of NT-proBNP, biomarker of cardiac decompensation (clinical study); format: in vivo, human; conditions: n=20; for Plasma NT-proBNP, median: 25 micrograms/kg body weight/day
Procedure: as §1

[5] = test system: patients with advanced cancer in the hospice setting; experiment: Four-meter gait speed (4MGS) (clinical study); format: in vivo, human; conditions: n=20
Procedure: as §1

[6] = test system: hospice patients with advanced, incurable cancer; experiment: Overall conclusion of the 10-day clinical study in hospice patients; format: in vivo, human; conditions: continuous treatment for 10 days
Procedure: as §1

[7] = continuous subcutaneous infusion over 24 weeks; cited from earlier work
[8] = Day 3, 25 micrograms/kg body weight/day continuous sc. or iv. infusion
[9] = Day 3, 25 micrograms/kg body weight/day
[10] = Day 10, 25 micrograms/kg body weight/day

## human relaxin-2
[1]; [8]
  Level of dyspnea: markedly or moderately improved, absolute number of patients: 8
  Level of dyspnea: markedly or moderately improved, percentage of patients: (40)^# %
[1]; [9]
  Level of dyspnea: markedly or moderately worsened, absolute number of patients: 1
  Level of dyspnea: markedly or moderately worsened, percentage of patients: (5)^# %
[1]; [10]
  Level of dyspnea: markedly or moderately improved, absolute number of patients: 12
  Level of dyspnea: markedly or moderately improved, percentage of patients: (60)^# %
  Level of dyspnea: markedly or moderately worsened, absolute number of patients: 1
  Level of dyspnea: markedly or moderately worsened, percentage of patients: (5)^# %
[2]; Baseline
  Ability of self-care, absolute number of patients: 5
  Ability of self-care, percentage of patients: 25%
[2]; [9]
  Ability of self-care, absolute number of patients: 7
  Ability of self-care, percentage of patients: 35%
[2]; [10]
  Ability of self-care, absolute number of patients: 17
  Ability of self-care, percentage of patients: (85)* %
[3]; Day 3
  Level of general wellbeing: markedly or moderately improved, absolute number of patients: 9
  Level of general wellbeing: markedly or moderately improved, percentage of patients: (45)# %
  Level of general wellbeing: markedly or moderately worsened, absolute number of patients: 2
  Level of general wellbeing: markedly or moderately worsened, percentage of patients: (10)# %
[3]; Day 10
  Level of general wellbeing: markedly or moderately improved, absolute number of patients: 11
  Level of general wellbeing: markedly or moderately improved, percentage of patients: (55)# %
  Level of general wellbeing: markedly or moderately worsened, absolute number of patients: 1
  Level of general wellbeing: markedly or moderately worsened, percentage of patients: 5%
[4]; Baseline
  Congestion: moderate or severe edema, absolute number of patients: 15
  Congestion: moderate or severe edema, percentage of patients: (75) %
  Congestion: moderate or severe rales, absolute number of patients: 16
  Congestion: moderate or severe rales, percentage of patients: (80) %
[4]; [9]
  Congestion: moderate or severe edema, absolute number of patients: 10
  Congestion: moderate or severe edema, percentage of patients: (50) %
  Congestion: moderate or severe rales, absolute number of patients: 8
  Congestion: moderate or severe rales, percentage of patients: (40)^# %
[4]; [10]
  Congestion: moderate or severe edema, absolute number of patients: 6
  Congestion: moderate or severe edema, percentage of patients: (30)^# %
  Congestion: moderate or severe rales, absolute number of patients: 5
  Congestion: moderate or severe rales, percentage of patients: (25)^# %
NT-proBNP; Baseline
  Plasma NT-proBNP, median (IQR): 3438 (597-4175) pg/ml
NT-proBNP; Day 3
  Plasma NT-proBNP, median: 1813 pg/mL
NT-proBNP; Day 10
  Plasma NT-proBNP, median: 778 pg/mL
[5]; Baseline
  Four-meter gait speed, median: 0.56 m/s
  Unable to walk 4 m, % of patients: 35%
  Unable to walk 4 m, absolute number of patients: 7
[5]; [9]
  Four-meter gait speed, median: 0.66 m/s
  Unable to walk 4 m, % of patients: 25%
  Unable to walk 4 m, absolute number of patients: 5
[5]; [10]
  Four-meter gait speed, median: 0.86* m/s
  Unable to walk 4 m, % of patients: (15)^# %
  Unable to walk 4 m, absolute number of patients: 3
[6]
  Clinical signs of cardiac decompensation (congestion, dyspnea, circulating NT-proBNP): ameliorates clinical signs of cardiac decompensation
  Clinical status of hospice patients: markedly improves the clinical status
[7]
  Physiological changes under relaxin infusion: sustained physiological changes which closely mimicked those seen in human pregnancy
